Results reported in the NIST ThermoML archive (doi:10.1021/je700261b).
± gives the expanded uncertainty stated by the source.

Test: xn = mol fraction of the nth substance listed
Conditions: Liquid

CCCCO [butan-1-ol] + O=C=O
mass density (313.1 K, 1008 kPa, x2 = 0.0251): 798.08 ± 0.46 kg/m3
mass density (313.1 K, 2011 kPa, x2 = 0.0251): 798.9 ± 0.47 kg/m3
mass density (313.1 K, 3006 kPa, x2 = 0.0251): 799.7 ± 0.47 kg/m3
mass density (313.1 K, 4012 kPa, x2 = 0.0251): 800.54 ± 0.48 kg/m3
mass density (313.1 K, 5008 kPa, x2 = 0.0251): 801.32 ± 0.49 kg/m3
mass density (313.1 K, 6013 kPa, x2 = 0.0251): 802.14 ± 0.49 kg/m3
mass density (313.1 K, 7004 kPa, x2 = 0.0251): 802.94 ± 0.5 kg/m3
mass density (313.1 K, 8023 kPa, x2 = 0.0251): 803.75 ± 0.51 kg/m3
mass density (313.1 K, 9037 kPa, x2 = 0.0251): 804.53 ± 0.52 kg/m3
mass density (313.1 K, 9990 kPa, x2 = 0.9698): 711.97 ± 1 kg/m3
mass density (313.1 K, 10005 kPa, x2 = 0.0251): 805.29 ± 0.52 kg/m3
mass density (313.1 K, 11011 kPa, x2 = 0.0251): 806.08 ± 0.53 kg/m3
mass density (313.1 K, 11014 kPa, x2 = 0.9698): 740.16 ± 0.96 kg/m3
mass density (313.1 K, 12018 kPa, x2 = 0.0251): 806.83 ± 0.54 kg/m3
mass density (313.1 K, 12040 kPa, x2 = 0.9698): 761.46 ± 0.85 kg/m3
mass density (313.1 K, 12987 kPa, x2 = 0.9698): 777.57 ± 0.78 kg/m3
mass density (313.1 K, 13003 kPa, x2 = 0.0251): 807.56 ± 0.55 kg/m3
mass density (313.1 K, 14007 kPa, x2 = 0.0251): 808.31 ± 0.56 kg/m3
mass density (313.1 K, 14020 kPa, x2 = 0.9698): 792.52 ± 0.74 kg/m3
mass density (313.1 K, 15009 kPa, x2 = 0.0251): 809.03 ± 0.57 kg/m3
mass density (313.1 K, 15028 kPa, x2 = 0.9698): 805.22 ± 0.71 kg/m3
mass density (313.1 K, 16004 kPa, x2 = 0.0251): 809.77 ± 0.58 kg/m3
mass density (313.1 K, 16029 kPa, x2 = 0.9698): 816.46 ± 0.69 kg/m3
mass density (313.1 K, 17000 kPa, x2 = 0.9698): 826.34 ± 0.67 kg/m3
mass density (313.1 K, 17005 kPa, x2 = 0.0251): 810.49 ± 0.58 kg/m3
mass density (313.1 K, 18019 kPa, x2 = 0.0251): 811.19 ± 0.59 kg/m3
mass density (313.1 K, 18024 kPa, x2 = 0.9698): 835.89 ± 0.65 kg/m3
mass density (313.1 K, 19019 kPa, x2 = 0.0251): 811.89 ± 0.6 kg/m3
mass density (313.1 K, 19027 kPa, x2 = 0.9698): 844.46 ± 0.64 kg/m3
mass density (313.1 K, 20020 kPa, x2 = 0.0251): 812.59 ± 0.61 kg/m3
mass density (313.1 K, 20021 kPa, x2 = 0.9698): 852.41 ± 0.63 kg/m3
mass density (313.1 K, 21013 kPa, x2 = 0.9698): 859.87 ± 0.62 kg/m3
mass density (313.1 K, 21027 kPa, x2 = 0.0251): 813.29 ± 0.62 kg/m3
mass density (313.1 K, 22005 kPa, x2 = 0.0251): 813.97 ± 0.63 kg/m3
mass density (313.1 K, 22032 kPa, x2 = 0.9698): 867.02 ± 0.61 kg/m3
mass density (313.1 K, 23006 kPa, x2 = 0.9698): 873.5 ± 0.6 kg/m3
mass density (313.1 K, 23011 kPa, x2 = 0.0251): 814.69 ± 0.64 kg/m3
mass density (313.1 K, 24004 kPa, x2 = 0.0251): 815.36 ± 0.65 kg/m3
mass density (313.1 K, 24011 kPa, x2 = 0.9698): 879.83 ± 0.59 kg/m3
mass density (313.1 K, 25028 kPa, x2 = 0.0251): 816.1 ± 0.65 kg/m3
mass density (313.11 K, 1990 kPa, x2 = 0.0857): 802.76 ± 0.46 kg/m3
mass density (313.11 K, 3001 kPa, x2 = 0.0857): 803.63 ± 0.47 kg/m3
mass density (313.11 K, 4009 kPa, x2 = 0.0857): 804.54 ± 0.48 kg/m3
mass density (313.11 K, 5013 kPa, x2 = 0.0857): 805.41 ± 0.48 kg/m3
mass density (313.11 K, 6014 kPa, x2 = 0.0857): 806.27 ± 0.49 kg/m3
mass density (313.11 K, 7009 kPa, x2 = 0.0857): 807.15 ± 0.5 kg/m3
mass density (313.11 K, 8011 kPa, x2 = 0.0857): 807.98 ± 0.51 kg/m3
mass density (313.11 K, 9009 kPa, x2 = 0.0857): 808.79 ± 0.51 kg/m3
mass density (313.11 K, 10011 kPa, x2 = 0.0857): 809.65 ± 0.52 kg/m3
mass density (313.11 K, 10994 kPa, x2 = 0.0857): 810.46 ± 0.53 kg/m3
mass density (313.11 K, 12007 kPa, x2 = 0.0857): 811.26 ± 0.54 kg/m3
mass density (313.11 K, 13022 kPa, x2 = 0.0857): 812.06 ± 0.54 kg/m3
mass density (313.11 K, 13999 kPa, x2 = 0.0857): 812.83 ± 0.55 kg/m3
mass density (313.11 K, 15014 kPa, x2 = 0.0857): 813.63 ± 0.56 kg/m3
mass density (313.11 K, 16013 kPa, x2 = 0.0857): 814.38 ± 0.57 kg/m3
mass density (313.11 K, 16994 kPa, x2 = 0.0857): 815.12 ± 0.58 kg/m3
mass density (313.11 K, 18005 kPa, x2 = 0.0857): 815.89 ± 0.59 kg/m3
mass density (313.11 K, 19008 kPa, x2 = 0.0857): 816.61 ± 0.59 kg/m3
mass density (313.11 K, 20010 kPa, x2 = 0.0857): 817.4 ± 0.6 kg/m3
mass density (313.11 K, 20990 kPa, x2 = 0.0857): 818.09 ± 0.61 kg/m3
mass density (313.11 K, 22028 kPa, x2 = 0.0857): 818.85 ± 0.62 kg/m3
mass density (313.11 K, 22900 kPa, x2 = 0.0857): 819.47 ± 0.63 kg/m3
mass density (313.11 K, 23996 kPa, x2 = 0.0857): 820.3 ± 0.64 kg/m3
mass density (313.11 K, 25047 kPa, x2 = 0.0857): 821.11 ± 0.65 kg/m3
mass density (313.15 K, 9101 kPa, x2 = 0.4972): 830.36 ± 0.5 kg/m3
mass density (313.15 K, 10085 kPa, x2 = 0.4972): 831.83 ± 0.51 kg/m3
mass density (313.15 K, 11056 kPa, x2 = 0.4972): 833.28 ± 0.51 kg/m3
mass density (313.15 K, 12062 kPa, x2 = 0.4972): 834.75 ± 0.52 kg/m3
mass density (313.15 K, 13043 kPa, x2 = 0.4972): 836.14 ± 0.52 kg/m3
mass density (313.15 K, 14050 kPa, x2 = 0.4972): 837.54 ± 0.53 kg/m3
mass density (313.15 K, 15053 kPa, x2 = 0.4972): 838.9 ± 0.53 kg/m3
mass density (313.15 K, 16037 kPa, x2 = 0.4972): 840.22 ± 0.54 kg/m3
mass density (313.15 K, 17055 kPa, x2 = 0.4972): 841.56 ± 0.55 kg/m3
mass density (313.15 K, 18037 kPa, x2 = 0.4972): 842.85 ± 0.55 kg/m3
mass density (313.15 K, 19023 kPa, x2 = 0.4972): 844.11 ± 0.56 kg/m3
mass density (313.15 K, 20041 kPa, x2 = 0.4972): 845.39 ± 0.56 kg/m3
mass density (313.15 K, 21003 kPa, x2 = 0.4972): 846.61 ± 0.57 kg/m3
mass density (313.15 K, 22068 kPa, x2 = 0.4972): 847.91 ± 0.57 kg/m3
mass density (313.15 K, 23079 kPa, x2 = 0.4972): 849.14 ± 0.58 kg/m3
mass density (313.15 K, 24016 kPa, x2 = 0.4972): 850.27 ± 0.59 kg/m3
mass density (313.15 K, 25033 kPa, x2 = 0.4972): 851.48 ± 0.59 kg/m3
mass density (313.16 K, 10073 kPa, x2 = 0.5965): 836.7 ± 0.53 kg/m3
mass density (313.16 K, 10087 kPa, x2 = 0.8663): 805.12 ± 1.1 kg/m3
